{"source": "patent US12496306B2", "about": "(REMEDY PHARMACEUTICALS, INC., priority 2021, dated 2025)", "test": "Compounding experiments, bulk solution stability in Tris buffer", "assay_type": "physicochemical", "conditions": "1 mg/ml, at least 24 h, room temperature", "from_the_text": "This is because Tris buffers effectively in the range of pH 7-9 (i.e. ±1 pH unit from pKa of 8.1). Outside of this pH range, the bulk solution is no longer buffered even with the addition of Tris. To maintain bulk solution stability, it is necessary to increase the compounding pH above 9, which is outside of the buffering range of Tris."}
{"smiles": "COc1ccc(Cl)cc1C(=O)NCCc1ccc(S(=O)(=O)NC(=O)NC2CCCCC2)cc1", "note": "[glibenclamide, 5-chloro-N-(4-[N-(cyclohexylcarbamoyl)sulfamoyl]phenethyl)-2-methoxybenzamide]", "values": [{"measurement": "minimum compounding pH required to maintain bulk solution stability", "result": "≥ 9.1"}]}
